Source: patent US7709457B2, “Methods and compositions for delivery of pharmaceutical agents” (Genecure Pte Ltd., priority 1999, dated 2010)

How the values were obtained:
MB49 cells [1] = assay: In vitro transfection efficiency of pCMVlacZ, X-gal staining; type: cell-based, murine
human tumor xenografts = conditions: used by itself; cited from earlier work
[2] = system: urothelial cells of the bladder; assay: Transfection of murine bladders by intravesical instillation
Procedure: 5-7 week old-female C57BL6 mice were anaesthetized; their bladders were catheterized with 24 G i.v. catheter and flushed with 1×PBS. The DMBC and DNA complex were mixed for 15 min as described above. The final mix was made up to a final volume of 465 μl with 1×PBS for easy instillation and introduced intravesically. Transfection exposure times of 15 min, 30 min, 1 h or 2 h were evaluated. At different time points the bladders were flushed with 1×PBS to remove DNA/DMBC complex. The mice were sacrificed 48 h after treatment. Experiments were done in duplicates.
Cryostat sections of 6 μM in thickness were fixed in 1.25% glutaraldehyde for 10 min at 4° C. followed by incubation with X-gal for 4 h at 37° C. and were counterstained with haematoxylin.

MB49 cells [3] = assay: Nuclear and cytoplasmic accumulation of plasmid DNA by PCR; type: cell-based, murine; conditions: nuclear and cytoplasmic extracts
Procedure: Nuclear and cytoplasmic fractionation of transfected cells was carried out using gentle lysis with TNE buffer (10 mM Tris, pH (pH8), 1 mM EDTA, 100 mM NaCl, 1% Igepecal) and left on ice for 10 min followed by centrifugation at 7K for 5 min at 4° C. in a microfuge. The supernatant so produced was labelled the cytoplasmic extract and was transferred to a fresh tube. The nuclear extract were prepared by treatment with a proteinase K digestion (100 mM, NaCl, 10 Mm Tris, pH8, 0.5% SDS 25 mM EDTA and 0.1 mg/ml proteinase K) of the pelleted material overnight at 50° C. Nuclear DNA was extracted with phenol/chloroform twice followed by ethanol precipitation. PCR analysis was carried out as described above.
To determine the localization of DNA following transfection with DOTAP and DMBC, nuclear and cytoplasmic extracts were prepared from transfected cells. The presence of DNA in these extracts was determined using PCR. […] The GADPH gene was used to confirm the presence of nuclear DNA in nuclear extracts and the lack of contamination of cytoplasmic fractions with nuclear DNA.

MB49 cells [4] = assay: Proliferation assay ([14C]-thymidine incorporation), toxicity of transfection agents; type: cell-based, murine
Procedure: Proliferation was assayed by measuring [^14C]-thymidine incorporation. 1×10^4 cells were plated per well in a 96 well flat-bottomed tissue culture plate (Nunc, Rosklide, Denmark) and transfected at optimal conditions as described above for the appropriate length of time (2 h and 24 h exposure), washed and incubated with fresh RPMI 1640 at 37° C. After 32 h, supernatants were removed, and cells were rinsed with 1×PBS. Triplicate wells were incubated with […], [^14]-thymidine (specific activity 56.5 mCi/mmol; Du Pont, Wilmington, Del., USA) for 16 h. The samples were harvested as described in Zhang, Y. et al. (1997) Int. J. Cancer 71:851-7. [^14C]-thymidine incorporation was expressed as a percentage of the incorporation in control cells, which consisted of untransfected cells. The non-parametric Mann-Whitney U test was used to calculate statistical significance. Probability values of p<0.05 were considered statistically significant.
A cell proliferation assay was used to gauge the toxicity of the transfection agents. Relative toxicity was measured by comparing proliferation in transfected and untransfected cells, 48 h after plating. Cells were exposed to the transfection agents for 2 h and 24 h.

For `[Ca+2].[Cl-].[Cl-]` [Calcium chloride], the “ability to transfect MB49 cells” value (MB49 cells [1]; MB49 cells, pCMVlacZ, 2 h) was “Neither calcium chloride (0-40 μg) nor DEAE-Dextran (0-2 μg) nor naked DNA could transfect MB49 cells” and the Transfection efficiency (MB49 cells [1]; MB49 cells, pCMVlacZ, 2 h, percentage of cells stained blue with X-gal) was 0%.

For methyl-β-cyclodextrin, the “transfection with cyclodextrin lacking cholesterol” value (MB49 cells [1]; methyl-β-cyclodextrin by itself in combination with DOTAP and DNA, murine bladder epithelial cells) is given as “no transfection of murine bladder epithelial cells” and the anti-tumor effect (human tumor xenografts) is given as “had an anti-tumor effect”.

With “1,2-diacyl-3-trimethylammonium propane [DOTAP]” the “structure of bladder cells facing the lumen by transmission electron microscopy” value ([2]; 2 h transfection exposure, vs untransfected control bladder) was “did not result in any discernible structural difference”, the “transfection of bladder epithelial cells facing the lumen” value ([2]; intravesical instillation, mice) was “did not result in efficient transfection” and the “localization of LacZ plasmid DNA” value (MB49 cells [3]) was “only found to be in the cytoplasm”. The “14C-thymidine incorporation, transfected vs untransfected cells” value (MB49 cells [4]; 2 h exposure) was “no difference” and the “cell proliferative capacity vs untransfected cells” value (MB49 cells [4]; 24 h exposure) was “reduction in cell proliferative capacity but this was not statistically significant”.
